Assay results: patent publication US20230000813A1, “COMPOUND FOR THE TREATMENT OF BOVINE OR SWINE RESPIRATORY DISEASE” (Intervet Inc., priority 2016, published 2023)
Values after ≈ are worked out from the molar mass of the structure shown.

What was measured:
Experiment in all cases: MIC, broth-microdilution (CLSI VET01-A4)
Type in all cases: cell-based
[1] = tested on: Pasteurella multocida PM 12080 (IV102277-0093, BRD field isolate); details: Pasteurella multocida PM 12080; for MIC: read-out: MIC PM 12080
Procedure, shortened: (§1)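 Doubling dilution series in microdilution trays; endpoint = lowest conc. without visible growth (no turbidity, unaided eye); interpretation per CLSI VET01-S3.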

[2] = tested on: Pasteurella multocida PM 6391 (ATCC 43137, reference strain); details: Pasteurella multocida PM 6391; for MIC: read-out: MIC PM 6391
Procedure, shortened: as §1

[3] = tested on: Mannheimia haemolytica MH 12587 (1071, BRD field isolate, macrolide-resistance: erm+, E+); details: Mannheimia haemolytica MH 12587, macrolide-resistant
Procedure, shortened: as §1

[4] = tested on: Pasteurella multocida PM 10775 (080130003051, BRD field isolate); details: Pasteurella multocida PM 10775; for MIC: read-out: MIC PM 10775
Procedure, shortened: as §1

[5] = tested on: Mannheimia haemolytica MH 10720 (154, BRD field isolate); details: Mannheimia haemolytica MH 10720; for MIC: read-out: MIC MH 10720
Procedure, shortened: as §1

[6] = tested on: Mannheimia haemolytica MH 6357 (M7/2, reference strain, cattle infection strain); details: Mannheimia haemolytica MH 6357; read-out: MIC MH 6357
Procedure, shortened: as §1

[7] = tested on: Pasteurella multocida PM 6267 (P 2225 (L386), reference strain, mouse infection strain); details: Pasteurella multocida PM 6267; for MIC: read-out: MIC PM 6267
Procedure, shortened: as §1

[8] = tested on: Mannheimia haemolytica MH 6374 (ATCC 33396, reference strain); details: Mannheimia haemolytica MH 6374; read-out: MIC MH 6374
Procedure, shortened: as §1

[9] = tested on: Mannheimia haemolytica MH 13065 (XB0446-6003.9, BRD field isolate)
Procedure, shortened: (§2)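 MIC read by eye as lowest compound concentration without visible growth (no turbidity), interpreted per CLSI VET01-S3. Doubling-dilution broth-microdilution trays, run according to CLSI VET01-A4.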

[10] = tested on: Mannheimia haemolytica MH 13093 (XB0472-6014.1, BRD field isolate)
Procedure, shortened: as §2

SMILES | MIC PM 12080 [1] | MIC PM 6391 [2] | MIC MH 12587 [3] [µM] | MIC PM 10775 [4] | MIC MH 10720 [5] | MIC [6] [µM] | MIC PM 6267 [7] | MIC [8] [µM] | MIC [9] [µM] | MIC [10] [µM] | MIC [1] [µM] | MIC [2] [µM] | MIC [5] [µM] | MIC [7] [µM] | MIC [4] [µM]
CSC(C)(C)C(NC(=O)c1ccc(C#Cc2ccc(CNC3CC3)cc2)cc1)C(=O)NO (stereo not shown) [Compound 581] | <=0.1 μM | <=0.1 μM | 1.6 (≈ 0.723 µg/mL) | <=0.1 μM | <=0.1 μM | 0.4 (≈ 0.181 µg/mL) | <=0.1 μM | 0.8 (≈ 0.361 µg/mL) | 0.4 (≈ 0.181 µg/mL) | 0.4 (≈ 0.181 µg/mL) | – | – | – | – | –
CSC(C)(C)C(NC(=O)c1ccc(C#Cc2ccc(CNCc3ccccc3)cc2)cc1)C(=O)NO (stereo not shown) [Compound 585] | – | – | 1.6 (≈ 0.803 µg/mL) | <=0.1 μM | – | 0.8 (≈ 0.401 µg/mL) | – | 1.6 (≈ 0.803 µg/mL) | 0.8 (≈ 0.401 µg/mL) | 0.8 (≈ 0.401 µg/mL) | 0.4 (≈ 0.201 µg/mL) | 0.4 (≈ 0.201 µg/mL) | 0.2 (≈ 0.1 µg/mL) | 0.2 (≈ 0.1 µg/mL) | –
COc1ccc(CNCc2ccc(C#Cc3ccc(C(=O)NC(C(=O)NO)C(C)(C)SC)cc3)cc2)cc1 (stereo not shown) [Compound 586] | – | – | 1.6 (≈ 0.851 µg/mL) | – | – | 1.6 (≈ 0.851 µg/mL) | – | 1.6 (≈ 0.851 µg/mL) | 1.6 (≈ 0.851 µg/mL) | 1.6 (≈ 0.851 µg/mL) | 0.4 (≈ 0.213 µg/mL) | 0.8 (≈ 0.425 µg/mL) | 0.4 (≈ 0.213 µg/mL) | 0.2 (≈ 0.106 µg/mL) | 0.2 (≈ 0.106 µg/mL)
CSC(C)(C)[C@H](NC(=O)c1ccc(C#Cc2ccc(CNCc3ccncc3)cc2)cc1)C(=O)NO [Compound 587] | <=0.1 μM | <=0.1 μM | 0.8 (≈ 0.402 µg/mL) | <=0.1 μM | <=0.1 μM | 0.4 (≈ 0.201 µg/mL) | <=0.1 μM | 0.8 (≈ 0.402 µg/mL) | 0.4 (≈ 0.201 µg/mL) | 0.4 (≈ 0.201 µg/mL) | – | – | – | – | –
CSC(C)(C)[C@H](NC(=O)c1ccc(C#Cc2ccc(CNCC#N)cc2)cc1)C(=O)NO [Compound 592] | – | – | 0.8 (≈ 0.36 µg/mL) | <=0.1 μM | <=0.1 μM | 0.4 (≈ 0.18 µg/mL) | <=0.1 μM | 0.8 (≈ 0.36 µg/mL) | 0.8 (≈ 0.36 µg/mL) | 0.4 (≈ 0.18 µg/mL) | 0.2 (≈ 0.0901 µg/mL) | 0.2 (≈ 0.0901 µg/mL) | – | – | –
CSC(C)(C)[C@H](NC(=O)c1ccc(C#Cc2ccc(CNCc3cccnc3)cc2)cc1)C(=O)NO [Compound 593] | – | – | 0.8 (≈ 0.402 µg/mL) | <=0.1 μM | – | 0.4 (≈ 0.201 µg/mL) | <=0.1 μM | 0.8 (≈ 0.402 µg/mL) | 0.4 (≈ 0.201 µg/mL) | 0.8 (≈ 0.402 µg/mL) | 0.2 (≈ 0.101 µg/mL) | 0.8 (≈ 0.402 µg/mL) | 0.2 (≈ 0.101 µg/mL) | – | –
CSC(C)(C)[C@H](NC(=O)c1ccc(C#Cc2ccc(CNCc3ccnc(Cl)c3)cc2)cc1)C(=O)NO [Compound 594] | – | – | 1.6 (≈ 0.859 µg/mL) | – | – | 1.6 (≈ 0.859 µg/mL) | – | 1.6 (≈ 0.859 µg/mL) | 1.6 (≈ 0.859 µg/mL) | 1.6 (≈ 0.859 µg/mL) | 0.8 (≈ 0.43 µg/mL) | 0.8 (≈ 0.43 µg/mL) | 0.4 (≈ 0.215 µg/mL) | 0.4 (≈ 0.215 µg/mL) | 0.2 (≈ 0.107 µg/mL)
CSC(C)(C)[C@H](NC(=O)c1ccc(C#Cc2ccc(CNCc3ccccn3)cc2)cc1)C(=O)NO [Compound 595] | – | – | 1.6 (≈ 0.804 µg/mL) | <=0.1 μM | – | 0.8 (≈ 0.402 µg/mL) | – | 1.6 (≈ 0.804 µg/mL) | 0.8 (≈ 0.402 µg/mL) | 0.8 (≈ 0.402 µg/mL) | 0.4 (≈ 0.201 µg/mL) | 0.8 (≈ 0.402 µg/mL) | 0.2 (≈ 0.101 µg/mL) | 0.2 (≈ 0.101 µg/mL) | –
CSC(C)(C)[C@H](NC(=O)c1ccc(C#Cc2ccc(CNCc3ccco3)cc2)cc1)C(=O)NO [Compound 596] | <=0.1 μM | – | 0.8 (≈ 0.393 µg/mL) | <=0.1 μM | <=0.1 μM | 0.4 (≈ 0.197 µg/mL) | <=0.1 μM | 0.8 (≈ 0.393 µg/mL) | 0.4 (≈ 0.197 µg/mL) | 0.4 (≈ 0.197 µg/mL) | – | 0.2 (≈ 0.0983 µg/mL) | – | – | –
CSC(C)(C)[C@H](NC(=O)c1ccc(C#Cc2ccc(CNCc3cccs3)cc2)cc1)C(=O)NO [Compound 597] | <=0.1 μM | – | 1.6 (≈ 0.812 µg/mL) | <=0.1 μM | <=0.1 μM | 0.8 (≈ 0.406 µg/mL) | <=0.1 μM | 0.8 (≈ 0.406 µg/mL) | 0.8 (≈ 0.406 µg/mL) | 0.8 (≈ 0.406 µg/mL) | – | 0.2 (≈ 0.102 µg/mL) | – | – | –
CSC(C)(C)[C@H](NC(=O)c1ccc(C#Cc2ccc(CNCc3nccs3)cc2)cc1)C(=O)NO [Compound 600] | <=0.1 μM | – | 1.6 (≈ 0.814 µg/mL) | <=0.1 μM | – | 0.8 (≈ 0.407 µg/mL) | <=0.1 μM | 1.6 (≈ 0.814 µg/mL) | 0.8 (≈ 0.407 µg/mL) | 0.8 (≈ 0.407 µg/mL) | – | 0.4 (≈ 0.203 µg/mL) | 0.2 (≈ 0.102 µg/mL) | – | –
CC(C)([C@H](NC(=O)c1ccc(C#Cc2ccc(CN3CCOCC3)cc2)cc1)C(=O)NO)S(C)(=O)=O [Compound 604] | <=0.1 μM | <=0.1 μM | 1.6 (≈ 0.822 µg/mL) | <=0.1 μM | – | 1.6 (≈ 0.822 µg/mL) | <=0.1 μM | 1.6 (≈ 0.822 µg/mL) | 0.8 (≈ 0.411 µg/mL) | 1.6 (≈ 0.822 µg/mL) | – | – | 0.2 (≈ 0.103 µg/mL) | – | –
CC(C)([C@H](NC(=O)c1ccc(C#Cc2ccc(CNCC#N)cc2)cc1)C(=O)NO)S(C)(=O)=O [Compound 612] | <=0.1 μM | <=0.1 μM | 1.6 (≈ 0.772 µg/mL) | <=0.1 μM | <=0.1 μM | 0.8 (≈ 0.386 µg/mL) | <=0.1 μM | 0.4 (≈ 0.193 µg/mL) | 0.8 (≈ 0.386 µg/mL) | 0.8 (≈ 0.386 µg/mL) | – | – | – | – | –
CC(C)([C@H](NC(=O)c1ccc(C#Cc2ccc(CNCc3ccnc(Cl)c3)cc2)cc1)C(=O)NO)S(C)(=O)=O [Compound 614] | <=0.1 μM | <=0.1 μM | 0.8 (≈ 0.455 µg/mL) | <=0.1 μM | <=0.1 μM | 0.4 (≈ 0.228 µg/mL) | <=0.1 μM | 0.4 (≈ 0.228 µg/mL) | 0.2 (≈ 0.114 µg/mL) | 0.4 (≈ 0.228 µg/mL) | – | – | – | – | –
CC(C)([C@H](NC(=O)c1ccc(C#Cc2ccc(CNCc3cccs3)cc2)cc1)C(=O)NO)S(C)(=O)=O [Compound 617] | <=0.1 μM | <=0.1 μM | 0.8 (≈ 0.432 µg/mL) | <=0.1 μM | <=0.1 μM | 0.4 (≈ 0.216 µg/mL) | <=0.1 μM | 0.2 (≈ 0.108 µg/mL) | 0.2 (≈ 0.108 µg/mL) | 0.4 (≈ 0.216 µg/mL) | – | – | – | – | –
CC(C)(O)[C@H](NC(=O)c1ccc(C#Cc2ccc(CNCc3ccncc3)cc2)cc1)C(=O)NO [Compound 651] | <=0.1 μM | <=0.1 μM | 0.4 (≈ 0.189 µg/mL) | <=0.1 μM | <=0.1 μM | 0.4 (≈ 0.189 µg/mL) | <=0.1 μM | 0.2 (≈ 0.0945 µg/mL) | 0.2 (≈ 0.0945 µg/mL) | 0.4 (≈ 0.189 µg/mL) | – | – | – | – | –
CC(C)(O)[C@H](NC(=O)c1ccc(C#Cc2ccc(CNCc3nccs3)s2)cc1)C(=O)NO [Compound 735] | <=0.1 μM | <=0.1 μM | 0.4 (≈ 0.194 µg/mL) | – | <=0.1 μM | 0.4 (≈ 0.194 µg/mL) | <=0.1 μM | 0.2 (≈ 0.0969 µg/mL) | 0.2 (≈ 0.0969 µg/mL) | 0.4 (≈ 0.194 µg/mL) | – | – | – | – | 0.2 (≈ 0.0969 µg/mL)
CSC(C)(C)[C@H](NC(=O)c1ccc(C#Cc2ccc(CNCc3ccncc3)s2)cc1)C(=O)NO [Compound 740] | <=0.1 μM | – | 1.6 (≈ 0.814 µg/mL) | <=0.1 μM | – | 0.8 (≈ 0.407 µg/mL) | – | 0.8 (≈ 0.407 µg/mL) | 0.8 (≈ 0.407 µg/mL) | 0.8 (≈ 0.407 µg/mL) | – | 0.4 (≈ 0.203 µg/mL) | 0.2 (≈ 0.102 µg/mL) | 0.4 (≈ 0.203 µg/mL) | –
CSC(C)(C)[C@H](NC(=O)c1ccc(C#Cc2ccc(CNCc3nccs3)nc2)cc1)C(=O)NO [Compound 744] | – | – | 1.6 (≈ 0.815 µg/mL) | <=0.1 μM | – | 0.8 (≈ 0.408 µg/mL) | – | 0.8 (≈ 0.408 µg/mL) | 0.8 (≈ 0.408 µg/mL) | 1.6 (≈ 0.815 µg/mL) | 0.2 (≈ 0.102 µg/mL) | 0.4 (≈ 0.204 µg/mL) | 0.4 (≈ 0.204 µg/mL) | 0.4 (≈ 0.204 µg/mL) | –
